The values that follow are results of earlier work, collected in US20040234544A1, “Formulation containing (lyso-)phosphatidylserine for the prevention and treatment of stress states in warm blooded animals” (priority 2001, published 2004).

Like-named read-outs stand apart in the source and are kept apart here.

For one data set, the system named is trained runners. The note with it: 300 or 600 mg PS per day over 15 days.
A further data set concerns young adults. To be noted: 300 mg PS per day.
The next data set relates to persons under 40 years. The note with it: persons under 40 years and persons whose brain function was average for their age.

As to phosphatidylserine, the “effect in stress-induced behaviour (body temperature)” value in the data set with rats (old rats) was “normalization of body temperature”. In addition, the “effect in lesions of the stomach wall” value in the data set with rats (older rats) is recorded as “positive effect”. For the same substance, the “effect in lesions of the stomach wall” value in the data set on rats (young rats) is “this effect was not observed”. In the data set with trained runners, the “effect against muscle damage” value is “protective effect against muscle damage”. Besides, in the data set with young adults, the mood result is listed as “positive effect”, the pulse rate entry is “positive effect” and the subjective stress sensitivity result is given as “positive effect”. The “improvements under PS supplementation” value in the data set on persons under 40 years is “no improvements were observed”.
